The subject of series [1] is Cryptococcus neoformans. Nature of the series: broth dilution MFC, Cryptococcus neoformans. The following applies: 3 strains, Table R. Type of series: cell-based. (Dilution methods test growth across graded concentrations, often in twofold steps.)
Experimental: (§1) The in vitro antifungal activity tests were performed via conventional broth dilution methods in Sabouraud dextrose broth ("SDB") medium and Eagles Minimum Essential Medium ("EMEM") against a large number of fungi. Minimum Inhibitory Concentrations ("MICs") were measured after 24, 48 and 72 hour tests. In many cases, Minimum Fungicidial Concentrations ("MFCS") were measured after 48 and 72 hours.
In series [2] the test system is Candida albicans. The series can be described thus: broth dilution MIC, Candida albicans. The class given is cell-based. The following applies: 26 strains; for percentage of strains with MICs ≤1 mcg/ml: Table Q; for MIC90: Table S.
Experimental: as §1
Series [3] deals with Candida tropicalis & stellatoidea. The series can be described thus: broth dilution MIC, Candida tropicalis & stellatoidea. The class given is cell-based. The following applies: 5 strains; for percentage of strains with MICs ≤1 mcg/ml: Table Q; for MIC90: Table S.
Experimental: as §1
Series [4] has as its system Aspergillus. The series can be described thus: broth dilution MFC, Aspergillus. The following applies: for percentage of strains with MFCs ≤1 mcg/ml: Aspergillus, 37 strains, Table R. The class given is cell-based, Aspergillus (flavus, fumigatus and other species).
Series [5] deals with Candida krusei. Nature of the series: broth dilution MIC, Candida krusei. Type of series: cell-based. The following applies: 16 strains; for percentage of strains with MICs ≤1 mcg/ml: Table Q; for MIC90: Pichia kudriavzevii, Table S.
Series [6] relates to Dermatophytes. The series can be described thus: broth dilution MIC, Dermatophytes. The class given is cell-based, T. rubrum, T. mentagrophytes, and T. tonsurans. The following applies: 6 strains; for percentage of strains with MICs ≤1 mcg/ml: Table Q; for MIC90: Table S.
In series [7] the test system is Candida glabrata. The series can be described thus: broth dilution MIC, Candida glabrata. Type of series: cell-based. The following applies: 9 strains; for percentage of strains with MICs ≤1 mcg/ml: Table Q.
Experimental: as §1
The subject of series [8] is Dermatophytes. Nature of the series: broth dilution MFC, Dermatophytes. Type of series: cell-based, T. rubrum, T. mentagrophytes, and T. tonsurans. The following applies: 6 strains, Table R.
Experimental: as §1
The test system of series [9] is Candida krusei. The series can be described thus: broth dilution MFC, Candida krusei. The following applies: 16 strains, Table R. Type of series: cell-based.
Experimental: as §1
The test system of series [10] is Candida glabrata. Nature of the series: broth dilution MFC, Candida glabrata. Type of series: cell-based. The following applies: 9 strains, Table R.
Experimental: as §1
In series [11] the test system is Cryptococcus neoformans. The series can be described thus: broth dilution MIC, Cryptococcus neoformans. The class given is cell-based. The following applies: 3 strains; for percentage of strains with MICs ≤1 mcg/ml: Table Q; for MIC90: Table S.
Experimental: as §1
The subject of series [12] is Aspergillus. The series can be described thus: broth dilution MIC, Aspergillus. The following applies: for percentage of strains with MICs ≤1 mcg/ml / MIC90: Aspergillus, 37 strains; for percentage of strains with MICs ≤1 mcg/ml: Table Q; for MIC90: Table S. The class given is cell-based, Aspergillus (flavus, fumigatus and other species).
In series [13] the test system is Candida albicans. The series can be described thus: broth dilution MFC, Candida albicans. The following applies: 26 strains, Table R.
Experimental: as §1
Series [14] relates to Candida tropicalis & stellatoidea. The series can be described thus: broth dilution MFC, Candida tropicalis & stellatoidea. The following applies: 5 strains, Table R.
Experimental: as §1
The conditions of series [15]: Janssen U.S. Pat. No. 4,791,111; cited from earlier work.
Series [16] can be described thus: serum levels following oral dosing, mice. The class given is in vivo. The following applies: methyl cellulose formulation.
A short description of series [17]: serum levels following oral dosing, dogs. The class given is in vivo. The following applies: methyl cellulose formulation.
The nature of series [18]: serum levels following oral dosing, rats. Type of series: in vivo. The following applies: methyl cellulose formulation.
Series [19] relates to cytochrome P-450 liver drug metabolizing enzymes. The series can be described thus: induction of cytochrome P-450 after oral administration in an in vivo rat model.
The nature of series [20]: serum levels following oral dosing, monkeys. Type of series: in vivo. The following applies: methyl cellulose formulation.

The structures appear in SMILES notation. Converted amounts (≈) assume the structure as drawn.

Here are results for six molecules from patent publication US5693626A, “Tetrahydrofuran antifungals” (Schering Corporation, priority 1995, dated 1997).

As to `CC[C@H]([C@H](C)O)n1ncn(-c2ccc(N3CCN(c4ccc(OC[C@@H]5CO[C@@](Cn6cncn6)(c6ccc(F)cc6F)C5)cc4)CC3)cc2)c1=O`, the “percentage of strains with MFCs ≤1 mcg/ml” value with Cryptococcus neoformans [1] is 100 percentage of strains; with Aspergillus [4], 50 percentage of strains; in the series with Dermatophytes [8] it was 67 percentage of strains; with Candida krusei [9], 88 percentage of strains; in the series with Candida glabrata [10], 22 percentage of strains; in the series on Candida albicans [13], 100 percentage of strains. Further, in series [14], the “percentage of strains with MFCs ≤1 mcg/ml” value is 100 percentage of strains. The “percentage of strains with MICs ≤1 mcg/ml” value in the series with Candida albicans [2] is 100 percentage of strains; in series [3] it was 100 percentage of strains; in the series on Candida krusei [5], 100 percentage of strains; with Dermatophytes [6], 100 percentage of strains; with Candida glabrata [7] it was 22 percentage of strains; with Cryptococcus neoformans [11], 100 percentage of strains. Besides, the “percentage of strains with MICs ≤1 mcg/ml” value in the series on Aspergillus [12] was 100 percentage of strains. Besides, the MIC90 – broadly, an inhibitory concentration at the 90% level, which refers to growth in some studies and to a panel of isolates in others – in [3] was 0.117 µg/mL (≈ 0.167 µM); in the series on Candida krusei [5], 0.058 µg/mL (≈ 0.0828 µM); in the series with Dermatophytes [6], 0.165 µg/mL (≈ 0.235 µM); against Cryptococcus neoformans [11], 0.05 µg/mL (≈ 0.0713 µM).

In the case of `CC[C@@H]([C@@H](C)O)n1ncn(-c2ccc(N3CCN(c4ccc(OC[C@@H]5CO[C@@](Cn6cncn6)(c6ccc(F)cc6F)C5)cc4)CC3)cc2)c1=O`, the “percentage of strains with MFCs ≤1 mcg/ml” value with Cryptococcus neoformans [1] was 100 percentage of strains; with Aspergillus [4], 89 percentage of strains; in the series with Dermatophytes [8], 100 percentage of strains; in the series on Candida krusei [9] it was 100 percentage of strains; in the series on Candida glabrata [10], 22 percentage of strains; in the series with Candida albicans [13], 100 percentage of strains. In addition, the “percentage of strains with MFCs ≤1 mcg/ml” value in series [14] is 100 percentage of strains. Moreover, the “percentage of strains with MICs ≤1 mcg/ml” value in the series with Candida albicans [2] is listed as 100 percentage of strains; in series [3], 100 percentage of strains; in the series with Candida krusei [5] it was 100 percentage of strains; in the series with Dermatophytes [6], 100 percentage of strains; in the series with Candida glabrata [7], 33 percentage of strains; in the series with Cryptococcus neoformans [11], 100 percentage of strains. Further, in the series on Aspergillus [12], the “percentage of strains with MICs ≤1 mcg/ml” value is 100 percentage of strains. Besides, the MIC90 in the series on Candida albicans [2] was found to be 0.139 µg/mL (≈ 0.198 µM); in series [3], 0.354 µg/mL (≈ 0.505 µM); in the series on Candida krusei [5], 0.12 µg/mL (≈ 0.171 µM); against Dermatophytes [6], 0.707 µg/mL (≈ 1.01 µM); against Cryptococcus neoformans [11], 0.101 µg/mL (≈ 0.144 µM); in the series on Aspergillus [12], 0.112 µg/mL (≈ 0.16 µM).

As to `CC(O)C(C)n1ncn(-c2ccc(N3CCN(c4ccc(OCC5COC(Cn6cncn6)(c6ccc(Cl)cc6Cl)O5)cc4)CC3)cc2)c1=O` (single isomer, unassigned; (+)) [(+)cis-4-[4-[4-[4-[[2-2,4-dichlorophenyl)-2-(1H-1,2,4-triazol-1-ylmethyl)-1,3-dioxolan-4-yl]methoxy]phenyl]-1-piperazinyl]-2,4dihydro-2-(2-hydroxy-1-methylpropyl)-3H-1,2,4-triazol-3-one], the solubility result in [15] was “increased solubility”.

For `CC[C@@H]([C@H](C)O)n1ncn(-c2ccc(N3CCN(c4ccc(OC[C@@H]5CO[C@@](Cn6cncn6)(c6ccc(F)cc6F)C5)cc4)CC3)cc2)c1=O` [drawing 21], the “serum levels compared to azoles of similar structure” value in [16], in [17], in series [18] and in series [20] was “consistently higher serum levels” in each case. Also, the “induction of cytochrome P-450 liver drug metabolizing enzymes” value in [19] is “not inducers”.

For the molecule `CC[C@@H]([C@H](C)O)n1ncn(-c2ccc(N3CCN(c4ccc(OC[C@@H]5CO[C@@](Cn6cncn6)(c6ccc(F)cc6F)C5)cc4)CC3)cc2)c1=O` [drawing 23], the “percentage of strains with MFCs ≤1 mcg/ml” value is on record as 100 percentage of strains with Cryptococcus neoformans [1]; 62 percentage of strains in the series on Aspergillus [4]; 83 percentage of strains with Dermatophytes [8]; 94 percentage of strains in the series on Candida krusei [9]; 22 percentage of strains in the series with Candida glabrata [10]; 100 percentage of strains in the series on Candida albicans [13]. For the same molecule, the “percentage of strains with MFCs ≤1 mcg/ml” value in [14] was 100 percentage of strains. Besides, the “percentage of strains with MICs ≤1 mcg/ml” value in the series with Candida albicans [2] is listed as 100 percentage of strains; in series [3] it was 100 percentage of strains; in the series with Candida krusei [5], 100 percentage of strains; in the series with Dermatophytes [6] it was 100 percentage of strains; in the series on Candida glabrata [7], 22 percentage of strains; with Cryptococcus neoformans [11], 100 percentage of strains. Further, the “percentage of strains with MICs ≤1 mcg/ml” value in the series with Aspergillus [12] was 100 percentage of strains. Moreover, the MIC90 against Candida albicans [2] came to 0.174 µg/mL (≈ 0.248 µM); in series [3], 0.117 µg/mL (≈ 0.167 µM); against Candida krusei [5] it was 0.014 µg/mL (≈ 0.02 µM); in the series on Dermatophytes [6], 0.101 µg/mL (≈ 0.144 µM); against Candida glabrata [7] (Nakaseomyces glabratus, Table S) it was 17.1 µg/mL (≈ 24.4 µM); against Cryptococcus neoformans [11] it was 0.007 µg/mL (≈ 0.00999 µM). This molecule showed an MIC90 against Aspergillus [12] of 0.096 µg/mL (≈ 0.137 µM).

Consider `OC(Cn1cncn1)(Cn1cncn1)c1ccc(F)cc1F` [fluconazole, reference compound], for which the “percentage of strains with MFCs ≤1 mcg/ml” value in the series on Cryptococcus neoformans [1] is listed as 0 percentage of strains; in the series on Aspergillus [4], 0 percentage of strains; in the series with Dermatophytes [8] it was 0 percentage of strains; with Candida krusei [9], 0 percentage of strains; in the series with Candida glabrata [10] it was 0 percentage of strains; in the series with Candida albicans [13] it was 100 percentage of strains. The “percentage of strains with MFCs ≤1 mcg/ml” value in series [14] is reported as 100 percentage of strains. For the same molecule, the “percentage of strains with MICs ≤1 mcg/ml” value with Candida albicans [2] is listed as 100 percentage of strains; in series [3], 100 percentage of strains; in the series with Candida krusei [5], 0 percentage of strains; in the series with Dermatophytes [6], 100 percentage of strains; in the series on Candida glabrata [7], 0 percentage of strains; with Cryptococcus neoformans [11] it was 0 percentage of strains. For the same molecule, the “percentage of strains with MICs ≤1 mcg/ml” value in the series on Aspergillus [12] is recorded as 0 percentage of strains. Also, in the series on Aspergillus [4] (SDB, 37 species of Aspergillus, bounds printed with ≤, b40, read-out: geometric mean MFC), the MFC (commonly the lowest tested concentration that kills the fungus rather than only halting it) is at most 32 µg/mL. Further, in the series on Aspergillus [12] (SDB, 37 species of Aspergillus, bounds printed with ≤, b40, read-out: geometric mean MIC), the MIC (commonly the lowest concentration that inhibits growth of the organism) was at most 32 µg/mL.
